Series [1] has as its system isolated mouse liver mitochondria, complex I. Kind of series: Oxygen consumption through complex I. The following applies: for effect on oxygen consumption (in words): with malate/glutamate and/or succinate; for O2 cons CI EC20: inhibition of oxygen consumption, malate + glutamate + ADP, 2µM rotenone = 100%.
Series [2] deals with isolated mouse liver mitochondria. Kind of series: Loss of mitochondrial transmembrane potential. The series is classed as biochemical. The following applies: for ΔΨm loss EC20: 20% of maximal loss of ΔΨm (50µM mClCCP = 100%), 30-min incubation.

The values that follow come from publication PMC3446843 (Toxicological Sciences, 2012).

Where only a bound is given, the exact number is not on record here.

On to `CCN(CC)CC(=O)Nc1c(C)cccc1C` [Lidocaine], for which the “effect on oxygen consumption (in words)” value in series [1] is “increased oxygen consumption”. The “ΔΨm loss EC20” value in series [2] is on record as 339.5 µM.
With `COc1cc(CNC(=O)CCCC/C=C/C(C)C)ccc1O` [Capsaicin], in series [1], the “O2 cons CI EC20” value is listed as 15.7 µM. In series [2], the “ΔΨm loss EC20” value was found to be 275.0 µM.
For `CCCCN1CCCCC1C(=O)Nc1c(C)cccc1C` (stereo not shown) [Bupivacaine], in series [1], the “O2 cons CI EC20” value is above 800 µM. Besides, in series [2], the “ΔΨm loss EC20” value is 258.2 µM.
For `CN(C)C(=N)N=C(N)N` [Metformin], in that order: 351.8 µM and 388.4 µM.
For `COc1cc(/C=C/C(=O)CC(=O)/C=C/c2ccc(O)c(OC)c2)ccc1O` [Curcumin], in that order: above 200 µM and above 200 µM.
Regarding `CCN(CC)CC#CCOC(=O)C(O)(c1ccccc1)C1CCCCC1` (stereo not shown) [Oxybutynine], in series [1], the “O2 cons CI EC20” value was determined as 115.4 µM. Also, in series [2], the “ΔΨm loss EC20” value is recorded as 178.3 µM.
For `C=CC1=C(C(=O)O)N2C(=O)[C@@H](NC(=O)/C(=N\OCC(=O)O)c3csc(N)n3)[C@H]2SC1` [Cefixime], in that order: 216.8 µM and above 400 µM.
For the compound `CO[C@@H]1[C@@H](OC(N)=O)[C@@H](O)[C@H](Oc2ccc3c(O)c(NC(=O)c4ccc(O)c(CC=C(C)C)c4)c(=O)oc3c2C)OC1(C)C` [Novobiocin], the “O2 cons CI EC20” value in series [1] is on record as 173.5 µM. The “ΔΨm loss EC20” value in series [2] came to 351.6 µM.
Consider `CN1CCC[C@H]1c1cccnc1` [Nicotine], for which the “O2 cons CI EC20” value in series [1] was determined as 312 µM. In series [2], the “ΔΨm loss EC20” value is on record as above 400 µM.
Taken in the same sequence, the figures for `NCCS(=O)(=O)O` [Taurine] were above 800 µM and above 800 µM.
Take `C[C@@H]1O[C@@H](OC[C@H]2O[C@@H](Oc3c(-c4ccc(OCCO)c(OCCO)c4)oc4cc(OCCO)cc(O)c4c3=O)[C@H](O)[C@@H](O)[C@@H]2O)[C@H](O)[C@H](O)[C@H]1O` [Troxerutin]: the “O2 cons CI EC20” value in series [1] turned out to be 170.5 µM. Besides, the “ΔΨm loss EC20” value in series [2] was above 400 µM.
Regarding `O=C(N/N=C/c1ccc([N+](=O)[O-])o1)c1ccc(O)cc1` [Nifuroxazide], the “O2 cons CI EC20” value in series [1] is on record as 3.7 µM. In addition, the “ΔΨm loss EC20” value in series [2] was found to be 388.2 µM.
In the case of `CC(C)(C)NC(=O)[C@@H]1C[C@@H]2CCCC[C@@H]2CN1C[C@@H](O)[C@H](Cc1ccccc1)NC(=O)[C@H](CC(N)=O)NC(=O)c1ccc2ccccc2n1` [Saquinavir], the “effect on oxygen consumption (in words)” value in series [1] is “increased oxygen consumption”. The “ΔΨm loss EC20” value in series [2] amounted to 10.3 µM. Also, the “concentrations collapsing the ΔΨm and altering the mitochondrial respiration” value in series [2] (ΔΨm and respiration) is on record as “lower than 50 μM”.
Regarding `CC1=C(CC(=O)O)c2cc(F)ccc2/C1=C\c1ccc([S+](C)[O-])cc1` (stereo not shown) [Sulindac], in series [1], the “O2 cons CI EC20” value is given as 35.6 µM. The “ΔΨm loss EC20” value in series [2] is above 200 µM.
For the compound `C=CCN1CC[C@]23c4c5ccc(O)c4O[C@H]2C(=O)CC[C@@]3(O)[C@H]1C5` [Naloxone], the “O2 cons CI EC20” value in series [1] is reported as above 400 µM. In addition, the “ΔΨm loss EC20” value in series [2] is 298.7 µM.
With `CC(=O)Oc1ccc(C(c2ccc(OC(C)=O)cc2)c2ccccn2)cc1` [Bisacodyl], in series [1], the “O2 cons CI EC20” value worked out at 52.5 µM. Besides, in series [2], the “ΔΨm loss EC20” value was 312.4 µM.
For `CCCC(CCC)C(=O)O` [Valproic acid], in that order: 44.9 µM and 267.2 µM.
Taken in the same sequence, the figures for `O=C1CN(/N=C/c2ccc([N+](=O)[O-])o2)C(=O)N1` [Nitrofurantoin] were 8.7 µM and 442.5 µM.
As to `Oc1cc(O)cc(O)c1` [Phloroglucinol], in series [1], the “O2 cons CI EC20” value is reported as above 400 µM. In addition, the “ΔΨm loss EC20” value in series [2] is above 800 µM.
For `OC(Cn1cncn1)(Cn1cncn1)c1ccc(F)cc1F` [Fluconazole], in that order: 186.6 µM and 512.7 µM.
For `Cc1cc(NS(=O)(=O)c2ccc(N)cc2)no1` [Sulfamethoxazole], in that order: above 400 µM and above 400 µM.
For `Nc1nc2ncc(CNc3ccc(C(=O)N[C@@H](CCC(=O)O)C(=O)O)cc3)nc2c(=O)[nH]1` [Folic acid], in that order: 213.0 µM and 276.2 µM.
Turning to `NC(=O)N1c2ccccc2C=Cc2ccccc21` [Carbamazepine], the “effect on oxygen consumption (in words)” value in series [1] is on record as “increased oxygen consumption”. In series [2], the “ΔΨm loss EC20” value was found to be 66.9 µM.
In the case of `NC(=O)c1cnccn1` [Pyrazinamide], the “O2 cons CI EC20” value in series [1] amounted to 190.9 µM. For the same compound, the “ΔΨm loss EC20” value in series [2] is on record as above 400 µM.
For `CC(=O)Oc1ccccc1C(=O)O` [Acetylsalicylic acid], in that order: 149.8 µM and 335.5 µM.
In the case of `C#CCN(C)Cc1ccccc1` [Pargyline], the “O2 cons CI EC20” value in series [1] is 206.8 µM. In addition, in series [2], the “ΔΨm loss EC20” value worked out at 243 µM.
On to `OC[C@H]1O[C@@](CO)(O[C@H]2O[C@H](CO)[C@@H](O)[C@H](O)[C@H]2O)[C@@H](O)[C@@H]1O` [Sucrose], for which, in series [1], the “O2 cons CI EC20” value is on record as above 800 µM. The “ΔΨm loss EC20” value in series [2] was above 800 µM.
Regarding `O=C1NS(=O)(=O)c2ccccc21` [Saccharin], in series [1], the “O2 cons CI EC20” value is listed as 179.4 µM. In series [2], the “ΔΨm loss EC20” value is reported as above 400 µM.
Taken in the same sequence, the figures for `CNC(=C[N+](=O)[O-])NCCSCc1ccc(CN(C)C)o1` [Ranitidine] were 97.3 µM and 368.1 µM.
Turning to `CC(C)(S)[C@@H](N)C(=O)O` [D-penicillamine], the “O2 cons CI EC20” value in series [1] is on record as above 800 µM. Also, the “ΔΨm loss EC20” value in series [2] is given as above 400 µM.
Consider `Cc1ccc(Nc2c(F)cccc2Cl)c(CC(=O)O)c1` [Lumiracoxib], for which the “O2 cons CI EC20” value in series [1] worked out at 12.0 µM. Also, the “ΔΨm loss EC20” value in series [2] came to 148.8 µM.
For the compound `COC(=O)c1ccc(O)cc1` [Methyl paraben], in series [1], the “O2 cons CI EC20” value is 94.8 µM. Further, in series [2], the “ΔΨm loss EC20” value is given as above 200 µM.
Taken in the same sequence, the figures for `Cc1c(N(C)CS(=O)(=O)[O-])c(=O)n(-c2ccccc2)n1C.[Na+]` [Dipyrone] were 107.3 µM and 354.4 µM.
As to `Cc1cn([C@H]2C[C@H](N=[N+]=[N-])[C@@H](CO)O2)c(=O)[nH]c1=O` [Zidovudine], the “effect on oxygen consumption (in words)” value in series [1] is given as “increased oxygen consumption”. For the same compound, in series [2], the “ΔΨm loss EC20” value was 416.1 µM.
In the case of `CC[C@H](C)C(=O)O[C@H]1C[C@@H](C)C=C2C=C[C@H](C)[C@H](CC[C@@H]3C[C@@H](O)CC(=O)O3)[C@H]21` [Lovastatin], in series [1], the “O2 cons CI EC20” value is recorded as 6.2 µM. Moreover, the “ΔΨm loss EC20” value in series [2] is reported as 43.6 µM.
Taken in the same sequence, the figures for `Cn1c(=O)c2c(ncn2C)n(C)c1=O` [Caffeine] were above 400 µM and above 400 µM.
For `O=C(O)CCCc1ccc(N(CCCl)CCCl)cc1` [Chlorambucil], the “O2 cons CI EC20” value in series [1] turned out to be 140.9 µM. Further, in series [2], the “ΔΨm loss EC20” value was above 200 µM.
For `[Cl][Mn][Cl]` [Manganese chloride], in that order: above 400 µM and above 800 µM.
In the case of `C#Cc1cccc(Nc2ncnc3cc(OCCOC)c(OCCOC)cc23)c1` [Erlotinib], the “effect on oxygen consumption (in words)” value in series [1] was “increased oxygen consumption”. The “ΔΨm loss EC20” value in series [2] is given as 195.9 µM.
`C[C@](N)(Cc1ccc(O)c(O)c1)C(=O)O` [Methyldopa]: the “O2 cons CI EC20” value in series [1] is on record as 63.1 µM. The “ΔΨm loss EC20” value in series [2] was above 400 µM.
Taken in the same sequence, the figures for `O=C(O)c1cc(O)c(O)c(O)c1` [Gallic acid] were 153.9 µM and above 200 µM.
For the compound `CCCOC(=O)c1ccc(O)cc1` [Propyl paraben], in series [1], the “O2 cons CI EC20” value is given as 28.4 µM. The “ΔΨm loss EC20” value in series [2] was 162.8 µM.
Taken in the same sequence, the figures for `Nc1ccc(S(=O)(=O)c2ccc(N)cc2)cc1` [Dapsone] were 205.5 µM and above 400 µM.
Taken in the same sequence, the figures for `CCOC(=O)[N-]c1cn(N2CCOCC2)n[o+]1` [Molsidomine] were above 200 µM and above 400 µM.
Taken in the same sequence, the figures for `O=C(O)CCCC[C@@H]1SC[C@@H]2NC(=O)N[C@@H]21` [Biotin] were above 400 µM and above 400 µM.
For `CN1C(C(=O)Nc2ccccn2)=C(O)c2ccccc2S1(=O)=O` [Piroxicam], in series [1], the “O2 cons CI EC20” value was 6.6 µM. Moreover, the “ΔΨm loss EC20” value in series [2] was 101.7 µM.
For the compound `Nc1ccn([C@@H]2CS[C@H](CO)O2)c(=O)n1` [Lamivudine], in series [1], the “O2 cons CI EC20” value is listed as 317.4 µM. The “ΔΨm loss EC20” value in series [2] came out at 347.2 µM.
For `CC(=O)Nc1ccc(O)cc1` [Acetaminophen], in that order: above 400 µM and above 200 µM.
`CC(C)Cc1ccc(C(C)C(=O)O)cc1` (stereo not shown) [Ibuprofen]: the “O2 cons CI EC20” value in series [1] was 132.1 µM. Besides, the “ΔΨm loss EC20” value in series [2] is 355.9 µM.
For `Nc1c(Br)cc(Br)cc1CN[C@H]1CC[C@H](O)CC1` [Ambroxol], in that order: above 200 µM and above 200 µM.
Taken in the same sequence, the figures for `O=P(O)(O)C(Cl)(Cl)P(=O)(O)O` [Clodronate] were 227.2 µM and above 400 µM.
Consider `CN[C@@H]1[C@H](O)[C@H](NC)[C@H]2O[C@@]3(O)C(=O)C[C@@H](C)O[C@H]3O[C@@H]2[C@H]1O` [Spectinomycin], for which the “effect on oxygen consumption (in words)” value in series [1] is on record as “increased oxygen consumption”. Besides, in series [2], the “ΔΨm loss EC20” value is on record as above 400 µM.
For the compound `C[C@@H]1C[C@H]2[C@@H]3CCC4=CC(=O)C=C[C@]4(C)[C@@]3(F)[C@@H](O)C[C@]2(C)[C@@]1(O)C(=O)CO` [Dexamethasone], the “O2 cons CI EC20” value in series [1] is reported as above 200 µM. Further, in series [2], the “ΔΨm loss EC20” value is above 200 µM.
With `CC(=O)N1CCN(c2ccc(OCC3COC(Cn4ccnc4)(c4ccc(Cl)cc4Cl)O3)cc2)CC1` (stereo not shown) [Ketoconazole], the “O2 cons CI EC20” value in series [1] is listed as 2.9 µM. The “ΔΨm loss EC20” value in series [2] amounted to 243.0 µM.
